# Results taken from patent US12410163B2, “Compounds as GLP-IR agonists” (Terns Pharmaceuticals, Inc., priority 2022, dated 2025).
# Legend:
# human GLP-1R receptor = biological target: T1, human GLP-1R receptor (Homo sapiens, UniProt P43220); test: GLP-1R low expression cell assay (cAMP TR-FRET, CHO-K1_hGLP-1Rlow_clone10); type: cell-based; details: CHO-K1_hGLP-1Rlow_clone10 cells, percent activation relative to control GLP-1 peptide
# T1 construct: expressed in transfected cells
# Experimental: Stable cell lines expressing high and low GLP-1R surface expression are generated in CHO-K1 cells transfected (Fugene 6) with a puromycin selectable DNA plasmid encoding human GLP-1R receptor (accession number: NM_002062.5) under control of an EF1A promoter. Transfected cells are seeded into 24-well plates (9,000 cells/well) containing complete medium and incubated in a humidified incubator at 37° C. with 5% carbon dioxide. After overnight incubation, medium is replaced with complete medium supplemented with puromycin (6 μg/mL) and refreshed every 2-3 days to select for stably transfected cells. Individual pools of selected cells are expanded prior to analysis for responsiveness to GLP-1 control peptide using a TR-FRET assay to detect cAMP (LANCE Ultra cAMP Assay, Perkin Elmer). Briefly, cells are collected in Versene solution, plated in 384-well plates (1,000 cells/well) and combined with serially diluted GLP-1R control peptide (10 nL) using an acoustic dispenser (ECHO). Plates are incubated for 30 minutes at 25° C. prior to the addition of EU-cAMP tracer (5 μL) and Ulight-anti-cAMP (5 μL) reagents to each well, followed by 15 minutes incubation at 25° C. TR-FRET signal is detected using an EnVision Multimode Plate Reader (excitation=320 nm; emission=615 and 655 nm). Dose-response curves are used to generate EC50 values as a measure of responsiveness to the GLP-1R control peptide. Selected cell lines are monitored for responsiveness over multiple passages to ensure stability. […] Briefly, GLP-1R expression is analyzed by flow cytometry using a fluorescein-labeled Exendin-4 peptide fluorescent probe (FLEX). Cells are harvested in Versene solution and washed 3-times with PBS+0.5% BSA before incubation with FLEX reagent (10 μM) for 2 hours at room temperature. After incubation, cells are washed 3-times in PBS+0.5% BSA before final resuspension in PBS prior to analysis by flow cytometry to measure FLEX mean fluorescence intensity (MFI) as a measure of GLP-1R expression on the cell surface.
# For compound testing in the CHO-K1_hGLP-1Rlow_clone10 cell lines, cells are seeded in 384-well plates (1,000 cells/well). Test compounds are serially diluted in DMSO (10-point, 3-fold dilution), added to wells using an ECHO dispenser (10 nL/well) and plates are centrifuged for 1 min and agitated for 2 min at room temperature prior to 30-minute incubation at 25° C. After incubation, Eu-cAMP (5 μL) and Ulight-anti-cAMP (5 μL) reagents are added to each well, followed by centrifugation for 1 minute, agitation for 2 minutes at room temperature, and final incubation of the plates at 25° C. for 15 minutes. Plates are read using an EnVision microplate reader (excitation=320 nm; emission=615 and 655 nm). Dose-response curves are generated from duplicate wells based on percent activation calculated relative to a control GLP-1 peptide agonist that was run in parallel. EC50 values are determined by fitting percent activation as a function of compound concentration using the Hill equation (XLfit).
# Stable cell lines expressing high and low GLP-1R surface expression were generated in CHO-K1 cells transfected (Fugene 6) with a puromycin selectable DNA plasmid encoding human GLP-1R receptor (accession number: NM_002062.5) under control of an EF1A promoter. Transfected cells were seeded into 24-well plates (9,000 cells/well) containing complete medium and incubated in a humidified incubator at 37° C. with 5% carbon dioxide. After overnight incubation, medium was replaced with complete medium supplemented with puromycin (6 μg/mL) and refreshed every 2-3 days to select for stably transfected cells. Individual pools of selected cells were expanded prior to analysis for responsiveness to GLP-1 control peptide using a TR-FRET assay to detect cAMP (LANCE Ultra cAMP Assay, Perkin Elmer).
# human hepatocytes = test: Metabolic stability in hepatocytes; type: in vitro ADME; details: 1 μM, 1×10^6 cells/mL, 0-240 min
# Experimental: (§1) Test compounds are incubated in human hepatocytes and stability is assessed from the substrate […] approach. Test compounds are dissolved in dimethyl sulfoxide (DMSO) to create a 10 mM Stock, and then further diluted to create a 1000× Working Stock of 1 mM with DMSO in 96-well plates for test compounds and the positive control (midazolam). Vials containing cryopreserved hepatocytes are removed from the liquid nitrogen tank and immediately immersed in a 37° C. water bath. The vials are shaken gently until the contents had thawed and were then immediately emptied into 48 mL of pre-warmed HT Medium in a 50 mL conical tube. Cells remaining in the vial are resuspended with 1.0 mL of pre-warmed HT Medium and added to the conical tube. The tube is capped and then gently inverted several times to resuspend the hepatocytes. The cell suspension is centrifuged at 50×g at room temperature for 5 minutes and the supernatant discarded. The cell pellet is loosened by gently swirling the centrifuge tube and is re-suspended in 4 mL of warm Dulbecco's Modified Eagle medium (DMEM). Cell density is determined by a cell counter by Nexcelom, and DMEM medium is added to obtain a target density of 1×10^6 cells/mL. The assay is carried out in 96-well microtiter plates. Test Compounds are incubated at 1 μM with 1×10^6 cells/mL hepatocytes in DMEM for 0, 30, 60, 120 and 240 minutes. The incubation is carried out with gentle shaking at 37° C. under a humid atmosphere of 95% air/5% CO2. The volume of the incubation mixture is 37 μL with a final 0.1% DMSO. At each of the time points, the incubation is stopped by adding 150 μL quenching solution (100% acetonitrile, 0.1% formic acid containing bucetin as an internal standard for positive ESI mode). Subsequently, the mixtures are vortexed for 20 min and centrifuged at 4,000 RPM at 10° C. The supernatant (80 μL) is transferred to a clean 96-well plate and analyzed by LC-MS/MS. Midazolam at 1 μM with a final 0.1% DMSO is included as a positive control to verify assay performance. The percent parent remaining, intrinsic and predicted hepatic clearance and t1/2 are calculated. All samples are analyzed by LC-MS/MS using an AB Sciex API 4000 instrument, coupled to a Shimadzu LC-20AD LC Pump system. Separation is achieved using a Waters Atlantis T3 dC18 reverse phase HPLC column (20 mm×2.1 mm) at a flow rate of 0.5 mL/min. The mobile phase consisted of 0.1% formic acid in water (solvent A) and 0.1% formic acid in 100% acetonitrile (solvent B). Elution conditions are detailed below.
# (§2) The ion optics of each test compound are optimized for their declustering potential (DP), […] (CE), collision-cell exit potential (CXP) and used in a selected ion monitoring experiment in the positive ion mode. The peak area ratio of each test compound to internal standard is then evaluated for stability. The extent of metabolism is calculated based on the disappearance of the test compound, compared to its initial concentration. The initial rates of clearance of the test compound are calculated using the linear regression plot of semi-log % remaining of the compound versus time. The elimination rate constant (k) of the linear regression plot is then used to determine t1/2 and the intrinsic clearance (CLint) using the following formula, where Chepatocyte (million cells/mL) is the cell density of the incubation: k=−slope t1/2=0.693/k CLint=k/Chepatocyte
# (§3) Test compounds were incubated in human hepatocytes and stability was assessed from the substrate […] approach. Test compounds were dissolved in dimethyl sulfoxide (DMSO) to create a 10 mM Stock, and then further diluted to create a 1000× Working Stock of 1 mM with DMSO in 96-well plates for test compounds and the positive control (midazolam). Vials containing cryopreserved hepatocytes were removed from the liquid nitrogen tank and immediately immersed in a 37° C. water bath. […]
# [1] = Metabolic stability in hepatocytes; type: in vitro ADME; details: cryopreserved human hepatocytes (suspension), 1×10^6 cells/mL, intrinsic clearance, read-out: hHep CLint
# Experimental: as §1, §2, §3
# T1 sequence (P43220 24-463): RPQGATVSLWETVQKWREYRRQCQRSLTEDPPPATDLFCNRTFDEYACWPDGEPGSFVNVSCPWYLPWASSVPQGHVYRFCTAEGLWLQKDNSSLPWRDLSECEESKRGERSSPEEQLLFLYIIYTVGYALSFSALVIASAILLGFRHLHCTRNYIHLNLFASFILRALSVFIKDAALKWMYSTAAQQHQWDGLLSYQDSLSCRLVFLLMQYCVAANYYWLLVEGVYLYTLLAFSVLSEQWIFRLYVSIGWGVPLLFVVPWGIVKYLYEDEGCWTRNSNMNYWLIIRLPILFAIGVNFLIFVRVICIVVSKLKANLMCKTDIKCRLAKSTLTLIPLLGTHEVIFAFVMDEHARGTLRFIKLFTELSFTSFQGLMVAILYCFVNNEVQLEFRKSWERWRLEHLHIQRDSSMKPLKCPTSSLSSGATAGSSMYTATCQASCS
EC50 (human GLP-1R receptor) [µM],hHep t1/2 (human hepatocytes) [h],CLint scaled at 1 μM [1] [L/h/kg],Structure (SMILES)
0.05 to 0.1,> 8,0.301,"N#Cc1ccc(COc2cccc(N3CCN(Cc4nc5ccc(C(=O)O)cc5n4C[C@@H]4CCO4)[C@H]4CC43)n2)c(F)c1 (single isomer, unassigned) [Compound 42]"
> 0.1,> 8,0.301,"N#Cc1ccc(COc2ccnc(N3CCN(Cc4nc5ccc(C(=O)O)cc5n4Cc4cncs4)[C@H]4C[C@H]43)n2)c(F)c1 [Compound 19, 2-((5-(4-((4-Cyano-2-fluorobenzyl)oxy)pyrimidin-2-yl)-2,5-diazabicyclo[4.1.0]heptan-2-yl)methyl)-1-(thiazol-5-ylmethyl)-1H-benzo[d]imidazole-6-carboxylic Acid]"
,> 8,0.301,"CCn1nncc1Cn1c(CN2CCN(c3cccc(OCc4ccc(C#N)cc4F)n3)C3C[C@@H]32)nc2ccc(C(=O)O)cc21 (some centres unmarked) [Compound 44, 2-((5-(6-((4-Cyano-2-fluorobenzyl)oxy)pyridin-2-yl)-2,5-diazabicyclo[4.1.0]heptan-2-yl)methyl)-1-((1-ethyl-1H-1,2,3-triazol-5-yl)methyl)-1H-benzo[d]imidazole-6-carboxylic Acid]"
